# Results: ChEMBL document CHEMBL3734659, “Identification of tris-(phenylalkyl)amines as new selective h5-HT2Breceptor antagonists” (Medchemcomm, 2015)
# The source made the active and inactive calls. No cut-off for these calls is given here.
# How the values were obtained:
# [1] = biological target: Muscarinic acetylcholine receptor M5 (Homo sapiens) (UniProt P08912); experiment: Displacement of [3H]QNB from human Muscarinic acetylcholine M5 receptor stably expressed in CHO cell after 90 mins by scintillation counting method; format: cell-based
# Chain of Muscarinic acetylcholine receptor M5 (Homo sapiens) (P08912 whole entry): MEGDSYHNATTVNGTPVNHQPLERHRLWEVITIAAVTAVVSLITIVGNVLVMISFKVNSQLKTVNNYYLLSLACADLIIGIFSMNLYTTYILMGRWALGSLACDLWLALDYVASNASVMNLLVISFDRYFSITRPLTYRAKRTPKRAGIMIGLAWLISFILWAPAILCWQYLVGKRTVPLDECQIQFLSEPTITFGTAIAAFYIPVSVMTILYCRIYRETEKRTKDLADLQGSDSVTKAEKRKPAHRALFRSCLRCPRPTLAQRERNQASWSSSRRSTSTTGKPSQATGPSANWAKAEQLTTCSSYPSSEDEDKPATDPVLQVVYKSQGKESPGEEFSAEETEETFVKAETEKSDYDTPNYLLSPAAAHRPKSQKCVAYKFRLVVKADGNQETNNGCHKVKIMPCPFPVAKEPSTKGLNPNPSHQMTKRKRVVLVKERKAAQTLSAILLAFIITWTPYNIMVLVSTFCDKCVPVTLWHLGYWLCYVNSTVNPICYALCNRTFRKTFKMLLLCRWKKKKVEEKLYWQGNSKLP
# [2] = biological target: Histamine H3 receptor (Homo sapiens) (UniProt Q9Y5N1); experiment: Displacement of [3H]alpha-methylhistamine from human H3 Histamine receptors expressed in HEK Flp-In cell after 90 mins by scintillation counting method; format: cell-based; settings: HEK293
# [3] = biological target: T1, 5-hydroxytryptamine receptor 2B (Homo sapiens, UniProt P41595); experiment: […] antagonist activity at human recombinant 5-HT2B receptor stably expressed in HEK cell membrane by schild plot method; design: species or system HEK293; settings: read-out: pA2 (converted)
# T1 sequence (P41595 whole entry): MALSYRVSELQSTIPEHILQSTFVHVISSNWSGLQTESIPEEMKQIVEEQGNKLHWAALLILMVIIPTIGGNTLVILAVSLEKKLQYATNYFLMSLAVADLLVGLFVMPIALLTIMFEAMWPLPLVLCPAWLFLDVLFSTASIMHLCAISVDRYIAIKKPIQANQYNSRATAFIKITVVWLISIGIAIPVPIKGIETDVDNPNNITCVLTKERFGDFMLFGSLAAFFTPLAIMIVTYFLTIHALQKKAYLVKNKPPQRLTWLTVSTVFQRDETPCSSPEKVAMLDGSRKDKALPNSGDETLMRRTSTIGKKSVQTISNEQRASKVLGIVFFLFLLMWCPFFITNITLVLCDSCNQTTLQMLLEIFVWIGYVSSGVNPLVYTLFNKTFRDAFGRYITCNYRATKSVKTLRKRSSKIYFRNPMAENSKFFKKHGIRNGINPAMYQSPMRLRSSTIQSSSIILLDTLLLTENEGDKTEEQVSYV
# [4] = biological target: Alpha-2A adrenergic receptor (Homo sapiens, UniProt P08913); experiment: Displacement of [3H]Rauwolscine from human recombinant alpha 2A receptor stably expressed in MDCK cells after 90 mins by scintillation counting method; format: cell-based
# Chain of Alpha-2A adrenergic receptor (P08913 whole entry): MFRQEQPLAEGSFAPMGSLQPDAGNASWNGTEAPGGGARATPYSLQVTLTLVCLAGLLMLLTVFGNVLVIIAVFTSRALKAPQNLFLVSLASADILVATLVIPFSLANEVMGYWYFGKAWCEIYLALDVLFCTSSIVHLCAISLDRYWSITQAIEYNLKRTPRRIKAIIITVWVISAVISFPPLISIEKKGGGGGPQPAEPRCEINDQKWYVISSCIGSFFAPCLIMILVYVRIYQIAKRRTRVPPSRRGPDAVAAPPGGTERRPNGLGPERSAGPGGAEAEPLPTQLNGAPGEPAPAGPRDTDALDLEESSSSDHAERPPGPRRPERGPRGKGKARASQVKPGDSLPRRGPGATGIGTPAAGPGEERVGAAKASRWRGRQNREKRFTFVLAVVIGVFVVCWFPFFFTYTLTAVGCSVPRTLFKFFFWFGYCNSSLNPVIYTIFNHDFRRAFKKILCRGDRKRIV
# D(1A) dopamine receptor = D(1A) dopamine receptor (Homo sapiens, UniProt P21728); experiment: Displacement of [3H]SCH23390 from human recombinant dopamine D1 receptor expressed in HEKT cell membrane after 90 mins by scintillation counting method; format: cell membranes
# Chain of D(1A) dopamine receptor (P21728 whole entry): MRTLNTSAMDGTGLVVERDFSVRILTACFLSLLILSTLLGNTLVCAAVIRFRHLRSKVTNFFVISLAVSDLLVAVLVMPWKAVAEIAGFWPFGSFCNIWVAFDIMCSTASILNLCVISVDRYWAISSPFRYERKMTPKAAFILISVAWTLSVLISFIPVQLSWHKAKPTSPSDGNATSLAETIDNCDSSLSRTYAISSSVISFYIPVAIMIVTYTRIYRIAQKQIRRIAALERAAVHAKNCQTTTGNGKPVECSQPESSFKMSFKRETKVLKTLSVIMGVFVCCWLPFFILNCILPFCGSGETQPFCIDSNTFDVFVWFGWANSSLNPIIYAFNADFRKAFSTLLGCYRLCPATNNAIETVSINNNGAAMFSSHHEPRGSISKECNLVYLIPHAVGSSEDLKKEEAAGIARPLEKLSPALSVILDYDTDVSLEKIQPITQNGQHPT
# [5] = biological target: Beta-3 adrenergic receptor (Homo sapiens) (UniProt P13945); experiment: Displacement of [3H]CGP12177 from human recombinant beta 3 receptor expressed in HEK Flp-In cells after 90 mins by scintillation counting method; format: cell-based; settings: HEK293
# Chain of Beta-3 adrenergic receptor (Homo sapiens) (P13945 whole entry, looked up): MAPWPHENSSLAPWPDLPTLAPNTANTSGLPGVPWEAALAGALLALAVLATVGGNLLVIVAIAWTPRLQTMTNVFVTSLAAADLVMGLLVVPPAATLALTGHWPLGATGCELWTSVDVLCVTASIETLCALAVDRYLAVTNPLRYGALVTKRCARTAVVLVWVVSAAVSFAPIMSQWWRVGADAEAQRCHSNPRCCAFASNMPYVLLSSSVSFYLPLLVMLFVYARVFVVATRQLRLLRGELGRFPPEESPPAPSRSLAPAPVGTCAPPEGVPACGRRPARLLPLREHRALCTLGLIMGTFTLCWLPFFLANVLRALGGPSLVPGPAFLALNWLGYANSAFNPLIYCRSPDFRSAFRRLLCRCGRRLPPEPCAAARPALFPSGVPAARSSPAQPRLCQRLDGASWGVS
# [6] = biological target: Muscarinic acetylcholine receptor M4 (Homo sapiens) (UniProt P08173); experiment: Displacement of [3H]QNB from human Muscarinic acetylcholine M4 receptor stably expressed in CHO cell after 90 mins by scintillation counting method; format: cell-based
# Chain of Muscarinic acetylcholine receptor M4 (Homo sapiens) (P08173 whole entry): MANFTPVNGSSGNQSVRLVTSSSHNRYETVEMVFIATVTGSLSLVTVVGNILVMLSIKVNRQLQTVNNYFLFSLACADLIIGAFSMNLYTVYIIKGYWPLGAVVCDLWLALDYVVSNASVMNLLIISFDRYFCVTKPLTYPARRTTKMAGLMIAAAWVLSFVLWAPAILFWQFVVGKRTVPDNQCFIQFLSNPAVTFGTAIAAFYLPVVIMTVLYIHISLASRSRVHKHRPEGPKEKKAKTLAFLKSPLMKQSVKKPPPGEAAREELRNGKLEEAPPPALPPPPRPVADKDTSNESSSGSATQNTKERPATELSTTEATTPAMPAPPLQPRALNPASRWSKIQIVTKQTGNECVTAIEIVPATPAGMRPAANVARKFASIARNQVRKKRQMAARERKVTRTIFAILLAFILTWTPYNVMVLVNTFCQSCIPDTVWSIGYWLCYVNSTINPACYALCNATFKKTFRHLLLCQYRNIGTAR
# [7] = biological target: 5-hydroxytryptamine receptor 1E (Homo sapiens) (UniProt P28566); experiment: Displacement of [3H]5-CT from human recombinant 5-HT1E receptor stably expressed in HEK cell membrane after 90 mins by scintillation counting method; format: cell membranes; settings: HEK293
# Chain of 5-hydroxytryptamine receptor 1E (Homo sapiens) (P28566 whole entry): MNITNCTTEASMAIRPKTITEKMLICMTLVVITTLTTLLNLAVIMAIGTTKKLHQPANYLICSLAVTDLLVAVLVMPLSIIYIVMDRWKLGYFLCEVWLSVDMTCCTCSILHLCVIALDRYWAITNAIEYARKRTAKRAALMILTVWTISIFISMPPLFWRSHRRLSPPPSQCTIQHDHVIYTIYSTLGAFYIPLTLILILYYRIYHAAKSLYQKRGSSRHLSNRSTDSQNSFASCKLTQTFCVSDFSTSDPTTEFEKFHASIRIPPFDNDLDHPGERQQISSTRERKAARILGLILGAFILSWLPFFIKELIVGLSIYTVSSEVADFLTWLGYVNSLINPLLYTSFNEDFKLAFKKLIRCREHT
# [8] = biological target: T1, 5-hydroxytryptamine receptor 2B; experiment: Agonist activity at human recombinant 5-HT2B receptor expressed in Flp-In HEK cells preincubated for 10 mins by FLIPR based calcium mobilization assay; format: functional, cell-based; settings: HEK293
# [9] = biological target: 5-hydroxytryptamine receptor 1A (Homo sapiens, UniProt P08908); experiment: Displacement of [3H]Way100635 from human recombinant 5-HT1A receptor stably expressed in CHO cell membrane after 90 mins by scintillation counting method; format: cell membranes
# [10] = biological target: Muscarinic acetylcholine receptor M2 (Homo sapiens) (UniProt P08172); experiment: Displacement of [3H]NMS from human Muscarinic acetylcholine M2 receptor stably expressed in CHO cell after 90 mins by scintillation counting method; format: cell-based
# Chain of Muscarinic acetylcholine receptor M2 (Homo sapiens) (P08172 whole entry): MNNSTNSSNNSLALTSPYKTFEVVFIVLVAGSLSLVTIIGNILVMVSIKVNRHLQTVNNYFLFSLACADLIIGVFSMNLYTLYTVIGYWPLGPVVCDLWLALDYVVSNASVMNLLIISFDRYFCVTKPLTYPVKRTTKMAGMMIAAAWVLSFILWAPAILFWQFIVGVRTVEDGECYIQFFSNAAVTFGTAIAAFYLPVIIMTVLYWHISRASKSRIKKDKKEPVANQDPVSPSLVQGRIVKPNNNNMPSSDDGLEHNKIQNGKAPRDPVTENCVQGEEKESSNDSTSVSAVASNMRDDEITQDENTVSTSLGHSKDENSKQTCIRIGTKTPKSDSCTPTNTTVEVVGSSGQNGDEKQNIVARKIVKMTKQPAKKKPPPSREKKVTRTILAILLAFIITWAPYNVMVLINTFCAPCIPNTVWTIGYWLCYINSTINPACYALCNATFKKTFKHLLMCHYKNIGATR
# [11] = biological target: 5-hydroxytryptamine receptor 2A (Homo sapiens, UniProt P28223); experiment: Antagonist activity at human recombinant 5-HT2A receptor expressed in Flp-In HEK cells in the presence of agonist preincubated for 10 mins by FLIPR based calcium mobilization assay; format: functional, cell-based, HEK293
# [12] = biological target: Translocator protein (Rattus norvegicus) (UniProt P16257); experiment: Displacement of [3H]PK11195 from rat brain PBR after 90 mins by scintillation counting method
# Chain of Translocator protein (Rattus norvegicus) (P16257 whole entry, looked up): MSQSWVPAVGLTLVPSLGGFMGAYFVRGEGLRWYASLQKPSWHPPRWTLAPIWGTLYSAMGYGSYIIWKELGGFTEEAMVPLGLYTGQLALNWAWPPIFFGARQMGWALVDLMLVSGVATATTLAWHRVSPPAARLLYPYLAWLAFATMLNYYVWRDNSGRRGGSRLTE
# [13] = biological target: T2, 5-hydroxytryptamine receptor 2C (Homo sapiens) (UniProt P28335); experiment: Displacement of [3H]mesulergine from human recombinant 5-HT2C receptor expressed in Flp-IN HEK cell membrane at 10 uM after 90 mins by scintillation counting method; format: cell membranes; settings: HEK293
# T2 sequence (whole entry): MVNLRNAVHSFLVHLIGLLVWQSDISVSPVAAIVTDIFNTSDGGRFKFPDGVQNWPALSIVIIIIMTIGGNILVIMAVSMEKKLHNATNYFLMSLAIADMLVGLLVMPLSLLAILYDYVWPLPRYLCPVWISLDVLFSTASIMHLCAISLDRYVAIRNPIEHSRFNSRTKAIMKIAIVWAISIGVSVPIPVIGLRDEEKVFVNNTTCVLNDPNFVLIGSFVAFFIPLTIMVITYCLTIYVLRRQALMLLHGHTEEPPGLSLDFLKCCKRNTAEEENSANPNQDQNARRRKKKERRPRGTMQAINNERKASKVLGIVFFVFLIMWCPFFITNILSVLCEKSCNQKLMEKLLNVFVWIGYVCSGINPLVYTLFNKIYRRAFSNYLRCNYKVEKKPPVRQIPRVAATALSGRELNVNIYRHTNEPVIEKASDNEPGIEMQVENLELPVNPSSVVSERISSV
# [14] = biological target: 5-hydroxytryptamine receptor 5A (Homo sapiens) (UniProt P47898); experiment: Displacement of [3H]LSD from human recombinant 5-HT5A receptor expressed in Flp-In CHO cell membrane after 90 mins by scintillation counting method; format: cell membranes
# [15] = Displacement of [3H]Pentazocine from Guinea pig sigma 1 receptor after 90 mins by scintillation counting method; design: species or system Cavia porcellus
# [16] = biological target: Muscarinic acetylcholine receptor M1 (Homo sapiens) (UniProt P11229); experiment: Displacement of [3H]NMS from human Muscarinic acetylcholine M1 receptor stably expressed in CHO cell after 90 mins by scintillation counting method; format: cell-based
# [17] = biological target: T3, 5-hydroxytryptamine receptor 2C (Homo sapiens, UniProt P28335); experiment: Displacement of [3H]mesulergine from human recombinant 5-HT2C receptor expressed in Flp-IN HEK cell membrane after 90 mins by scintillation counting method; format: cell membranes, HEK293; settings: read-out: Ki
# T3 sequence (P28335 whole entry): T2 sequence (whole entry)
# [18] = biological target: 5-hydroxytryptamine receptor 6 (Homo sapiens) (UniProt P50406); experiment: Displacement of [3H]LSD from human recombinant 5-HT6 receptor stably expressed in HEK cell membrane by scintillation counting method; format: cell membranes; settings: HEK293
# Rattus norvegicus = species: Rattus norvegicus; experiment: Displacement of [3H]Muscimol from rat brain Gamma-aminobutyric acid type-A receptor after 90 mins by scintillation counting method
# [19] = biological target: 5-hydroxytryptamine receptor 1D (Homo sapiens, UniProt P28221); experiment: Displacement of [3H]5-CT from human recombinant 5-HT1D receptor expressed in HEKT cell membrane after 90 mins by scintillation counting method; format: cell membranes
# Chain of 5-hydroxytryptamine receptor 1D (P28221 whole entry): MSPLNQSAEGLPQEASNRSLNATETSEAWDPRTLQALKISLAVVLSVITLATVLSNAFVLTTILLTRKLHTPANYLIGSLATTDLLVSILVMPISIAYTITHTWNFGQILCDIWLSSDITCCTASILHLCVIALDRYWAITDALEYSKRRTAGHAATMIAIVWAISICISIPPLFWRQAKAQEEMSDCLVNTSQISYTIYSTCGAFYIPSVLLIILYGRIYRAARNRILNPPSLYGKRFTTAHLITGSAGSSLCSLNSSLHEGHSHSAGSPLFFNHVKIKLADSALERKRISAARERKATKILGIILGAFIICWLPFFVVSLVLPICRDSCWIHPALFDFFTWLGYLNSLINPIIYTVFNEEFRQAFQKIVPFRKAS
# [20] = biological target: D(1B) dopamine receptor (Homo sapiens) (UniProt P21918); experiment: Displacement of [3H]SCH23390 from human recombinant dopamine D5 receptor expressed in HEKT cell membrane after 90 mins by scintillation counting method; format: cell membranes
# Histamine H1 receptor = Histamine H1 receptor (Homo sapiens, UniProt P35367); experiment: Displacement of [3H]Pyrilamine from human H1 Histamine receptors stably expressed in HEK cell membrane after 90 mins by scintillation counting method; format: cell membranes, HEK293
# D(3) dopamine receptor = D(3) dopamine receptor (Homo sapiens, UniProt P35462); experiment: Displacement of [3H]N-methylspiperone from human recombinant dopamine D3 receptor expressed in HEKT cell membrane after 90 mins by scintillation counting method; format: cell membranes
# [21] = biological target: Alpha-1D adrenergic receptor (Homo sapiens, UniProt P25100); experiment: Displacement of [3H]Prazosin from human recombinant alpha 1D receptor after 90 mins by scintillation counting method
# [22] = biological target: Muscarinic acetylcholine receptor M3 (Homo sapiens) (UniProt P20309); experiment: Displacement of [3H]NMS from human Muscarinic acetylcholine M3 receptor stably expressed in CHO cell after 90 mins by scintillation counting method; format: cell-based
# Chain of Muscarinic acetylcholine receptor M3 (Homo sapiens) (P20309 whole entry, looked up): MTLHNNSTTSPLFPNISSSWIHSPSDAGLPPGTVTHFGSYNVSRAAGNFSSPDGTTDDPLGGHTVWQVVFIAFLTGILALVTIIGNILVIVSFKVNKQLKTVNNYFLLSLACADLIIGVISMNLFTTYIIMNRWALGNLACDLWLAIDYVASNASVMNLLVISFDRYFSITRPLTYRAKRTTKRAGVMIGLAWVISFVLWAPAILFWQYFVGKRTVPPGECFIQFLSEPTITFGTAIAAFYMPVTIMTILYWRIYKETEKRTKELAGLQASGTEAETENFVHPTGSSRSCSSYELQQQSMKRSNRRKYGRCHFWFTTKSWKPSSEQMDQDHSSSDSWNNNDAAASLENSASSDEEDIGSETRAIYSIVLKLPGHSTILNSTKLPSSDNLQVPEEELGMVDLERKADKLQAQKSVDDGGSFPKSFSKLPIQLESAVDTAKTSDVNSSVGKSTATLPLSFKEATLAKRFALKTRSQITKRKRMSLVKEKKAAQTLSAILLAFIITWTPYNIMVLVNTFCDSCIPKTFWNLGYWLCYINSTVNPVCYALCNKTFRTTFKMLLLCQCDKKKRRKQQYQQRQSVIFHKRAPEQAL
# [23] = biological target: T1, 5-hydroxytryptamine receptor 2B; experiment: Displacement of [3H]LSD from human recombinant 5-HT2B receptor stably expressed in HEK cell membrane after 90 mins by scintillation counting method; format: cell membranes, HEK293
# [24] = biological target: Muscarinic acetylcholine receptor M5 (Homo sapiens) (UniProt P08912); experiment: Displacement of [3H]NMS from human Muscarinic acetylcholine M5 receptor stably expressed in CHO cell after 90 mins by scintillation counting method; format: cell-based
smiles,measurement,setting,value
COc1ccc(CCN(CCCc2ccccc2)CCc2ccc3c(c2)OCO3)cc1OC,Activity,[1],inactive
same,Activity,[2],inactive
same,Kb,[3],550 nM
same,Ki,[4],102 nM
same,Ki,D(1A) dopamine receptor,1680 nM
same,Activity,[5],inactive
same,Activity,[6],inactive
same,Activity,[7],inactive
same,Activity,[8],inactive
same,Ki,[9],821 nM
same,Activity,[10],inactive
same,IC50,[11],5010 nM
same,Activity,[12],inactive
same,inhibition,[13],> 50%
same,Activity,[14],inactive
same,Ki,[15],176 nM
same,Activity,[16],inactive
same,Ki,[17],399 nM
same,Activity,[18],inactive
same,Activity,Rattus norvegicus,inactive
same,Ki,[19],451 nM
same,Activity,[20],inactive
same,Ki,Histamine H1 receptor,1300 nM
same,Ki,D(3) dopamine receptor,498 nM
same,Ki,[21],467 nM
same,Activity,[22],inactive
same,Ki,[23],26 nM
same,Activity,[24],inactive
